Experimental data: US10526347B2, “3-(3H-imidazo[4,5-B]pyridin-2-yl)-1H-pyrazolo[3,4-B]pyridine and therapeutic uses thereof” (Samumed, LLC, priority 2014, dated 2020)

Key:
[1] = test system: Wnt activity (SW480 colon carcinoma cells stably expressing the Sp5-Luc reporter gene); assay: Sp5-Luc reporter gene screening assay for Wnt activity; assay type: cell-based; conditions: Homo sapiens
Excerpt: The screening assay for Wnt activity is described as follows. Reporter cell lines can be generated by stably transducing cancer cell lines (e.g., colon cancer) or primary cells (e.g., IEC-6 intestinal cells) with a lentiviral construct that includes a Wnt-responsive promoter driving expression of the firefly luciferase gene.
SW480 colon carcinoma cells were transduced with a lentiviral vector expressing luciferase with a human Sp5 promoter consisting of a sequence of eight TCF/LEF binding sites. SW480 cells stably expressing the Sp5-Luc reporter gene and a hygromycin resistance gene were selected by treatment with 150 μg/ml of hygromycin for 7 days. These stably transduced SW480 cells were expanded in cell culture and used for all further screening activities. For Sp5-Luc reporter gene assays, the cells were plated at 10,000 cells/well in 96-well plates with growth medium containing 10% fetal calf serum and incubated overnight at 37° C. and 5% CO2. Each compound was dissolved in DMSO as a 10 mM stock in standard j-vials and used to prepare compound source plates in dose-response format with 3-fold serial dilutions and a 10 mM top concentration. Compound transfer from serially diluted source plates to assay plates containing the cells was accomplished using a pintool (Multimek 96, Beckman equipped with V&P Scientific FP1S50H pins) based liquid handling protocol. This protocol used a slotted pin to transfer 50 nl of compound from a source plate well to an assay plate well containing 50 μl of cells in growth medium. […] Control wells received 50 nl of DMSO treatment for normalization and calculating IC50 values. The treated cells were incubated at 37° C. and 5% CO2 for an additional forty-two hours. Following incubation, the growth medium was removed and 50 μl of BrightGlo luminescence reagent (Promega) was added to each well of the 96-well assay plates. The plates were placed on an orbital shaker for 5 min and then luminescence was quantified on the Victor3 (Perkin Elmer) plate reader. Readings were normalized to DMSO only treated cells, and normalized activities were utilized for IC50 calculations using the dose-response log (inhibitor) vs. response -variable slope (four parameters) nonlinear regression feature available in GraphPad Prism 5.0 or 6.0.

[2] = test system: primary human fibroblasts derived from IPF patients (LL29 cells); assay: Inhibition of the fibrotic process in TGF-β1 treated IPF patient fibroblasts (αSMA staining); assay type: cell-based; conditions: Fibroblast, 96 h, LL29 cells treated with TGF-β1 (20 ng/mL), 4 days, read-out: Inhibition of fibrosis EC50
Excerpt: The above synthesized compounds were screened using primary human fibroblasts (derived from IPF patients) treated with TGF-β1 to determine their ability to inhibit the fibrotic process.
Primary human fibroblasts derived from IPF patients (LL29 cells) [^1Xiaoqiu Liu, et. al., “Fibrotic Lung Fibroblasts Show Blunted Inhibition by cAMP Due to Deficient cAMP Response Element-Binding Protein Phosphorylation”, Journal of Pharmacology and Experimental Therapeutics (2005), 315(2), 678-687; ^2Watts, K. L., et. al., “RhoA signaling modulates cyclin D1 expression in human lung fibroblasts; implications for idiopathic pulmonary fibrosis”, Respiratory Research (2006), 7(1), 88] were obtained from American Type Culture Collection (ATCC) and expanded in F12 medium supplemented with 15% Fetal Bovine Serum and Penicillin/Streptomycin.
Each compound was dissolved in DMSO as a 10 mM stock and used to prepare compound source plates. Serial dilution (1:2, 11-point dose-response curves from 10 μM to 1.87 nM) and compound transfer was performed using the ECHO 550 (Labcyte, Sunnyvale, Calif.) into 384-well clear bottom assay plates (Greiner Bio-One) with appropriate DMSO backfill for a final DMSO concentration of 0.1%. LL29 cells were plated at 1,500 cells/well in 80 μl/well F12 medium supplemented with 1% Fetal Bovine Serum. One hour after addition of the cells, TGF-β1 (Peprotech; 20 ng/mL) was added to the plates to induce fibrosis (ref. 1 and 2 above). Wells treated with TGF-β1 and containing DMSO were used as controls. Cells were incubated at 37° C. and 5% CO2 for 4 days. Following incubation for 4 days, SYTOX green nucleic acid stain (Life Technologies [Thermo Fisher Scientific]) was added to the wells at a final concentration of 1 uM and incubated at room temperature for 30 min. Cells were then fixed using 4% formaldehyde (Electron Microscopy Sciences), washed 3 times with PBS followed by blocking and permeabilization using 3% Bovine Serum Albumin (BSA; Sigma) and 0.3% Triton X-100 (Sigma) in PBS. Cells were then stained with antibody specific to α-smooth muscle actin (αSMA; Abcam) (ref. 1 and 2 above) in 3% Bovine Serum Albumin (BSA; Sigma) and 0.3% Triton X-100 (Sigma) in PBS, and incubated overnight at 4° C. Cells were then washed 3 times with PBS, followed by incubation with Alexa Flor-647 conjugated secondary antibody (Life Technologies [Thermo Fisher Scientific]) and DAPI at room temperature for 1 hour. Cells were then washed 3 times with PBS and plates were sealed for imaging. αSMA staining was imaged by excitation at 630 nm and emission at 665 nm and quantified using the Compartmental Analysis program on the CellInsight CX5 (Thermo Scientific). Dead or apoptotic cells were excluded from analysis based on positive SYTOX green staining. % of total cells positive for αSMA were counted in each well and normalized to the average of 11 wells treated with TGF-β1 on the same plate using Dotmatics' Studies Software. The normalized averages (fold change over untreated) of 3 replicate wells for each compound concentration were used to create dose-responses curves and EC50 values were calculated using non-linear regression curve fit in the Dotmatics' Studies Software. The EC50 values are reported.

IC50 [1] [nM] | Structure (SMILES) | EC50 [2] [nM]
> 10000 | CN(C)Cc1cncc(-c2cnc3[nH]nc(-c4nc5c(-c6cccc(F)c6)ccnc5[nH]4)c3c2)c1 [Compound 10, 1-(5-(3-(7-(3-Fluorophenyl)-3H-imidazo[4,5-b]pyridin-2-yl)-1H-pyrazolo[3,4-b]pyridin-5-yl)pyridin-3-yl)-N,N-dimethylmethanamine] | 2550
42.3 | CC(C)(C)C(=O)Nc1cncc(-c2cnc3[nH]nc(-c4nc5c(-c6ccc(F)cc6)ccnc5[nH]4)c3c2)c1 [Compound 28, N-(5-(3-(7-(4-Fluorophenyl)-3H-imidazo[4,5-b]pyridin-2-yl)-1H-pyrazolo[3,4-b]pyridin-5-yl)pyridin-3-yl)pivalamide] | 26
144 | Fc1ccc(-c2ccnc3[nH]c(-c4n[nH]c5ncc(-c6cncc(CN7CCCC7)c6)cc45)nc23)cc1 [Compound 33, 3-(7-(4-Fluorophenyl)-3H-imidazo[4,5-b]pyridin-2-yl)-5-(5-(pyrrolidin-1-ylmethyl)pyridin-3-yl)-1H-pyrazolo[3,4-b]pyridine] | 7800
42 | O=C(Nc1cncc(-c2cnc3[nH]nc(-c4nc5c(-c6ccccc6F)ccnc5[nH]4)c3c2)c1)C1CCCC1 [Compound 61, N-(5-(3-(7-(2-Fluorophenyl)-3H-imidazo[4,5-b]pyridin-2-yl)-1H-pyrazolo[3,4-b]pyridin-5-yl)pyridin-3-yl)cyclopentanecarboxamide] | 587
> 10000 | c1cncc(-c2cnc3[nH]nc(-c4nc5c(-c6cccnc6)ccnc5[nH]4)c3c2)c1 [Compound 68, 5-(Pyridin-3-yl)-3-(7-(pyridin-3-yl)-3H-imidazo[4,5-b]pyridin-2-yl)-1H-pyrazolo[3,4-b]pyridine] | ≥ 9990
> 10000 | c1cncc(-c2ccnc3[nH]c(-c4n[nH]c5ncc(-c6cncc(CN7CCCCC7)c6)cc45)nc23)c1 [Compound 78, 5-(5-(Piperidin-1-ylmethyl)pyridin-3-yl)-3-(7-(pyridin-3-yl)-3H-imidazo[4,5-b]pyridin-2-yl)-1H-pyrazolo[3,4-b]pyridine] | ≥ 9990
> 10000 | Cc1ccncc1-c1cnc2[nH]nc(-c3nc4c(-c5ccncc5)ccnc4[nH]3)c2c1 [Compound 91, 5-(4-Methylpyridin-3-yl)-3-(7-(pyridin-4-yl)-3H-imidazo[4,5-b]pyridin-2-yl)-1H-pyrazolo[3,4-b]pyridine] | ≥ 9990
2380 | CCCC(=O)Nc1cncc(-c2cnc3[nH]nc(-c4nc5c(-c6ccncc6)ccnc5[nH]4)c3c2)c1 [Compound 102, N-(5-(3-(7-(Pyridin-4-yl)-3H-imidazo[4,5-b]pyridin-2-yl)-1H-pyrazolo[3,4-b]pyridin-5-yl)pyridin-3-yl)butyramide] | ≥ 9990
> 10000 | O=C(Nc1cncc(-c2cnc3[nH]nc(-c4nc5c(-c6ccncc6)ccnc5[nH]4)c3c2)c1)C1CCCCC1 [Compound 106, N-(5-(3-(7-(Pyridin-4-yl)-3H-imidazo[4,5-b]pyridin-2-yl)-1H-pyrazolo[3,4-b]pyridin-5-yl)pyridin-3-yl)cyclohexanecarboxamide] | ≥ 9990
> 10000 | CCNCc1cncc(-c2cnc3[nH]nc(-c4nc5c(-c6ccccn6)ccnc5[nH]4)c3c2)c1 [Compound 114, N-((5-(3-(7-(Pyridin-2-yl)-3H-imidazo[4,5-b]pyridin-2-yl)-1H-pyrazolo[3,4-b]pyridin-5-yl)pyridin-3-yl)methyl)ethanamine] | ≥ 9990
633 | c1ccc(-c2ccnc3[nH]c(-c4n[nH]c5ncc(-c6cncc(CNCC7CCCC7)c6)cc45)nc23)nc1 [Compound 130, 1-Cyclopentyl-N-((5-(3-(7-(pyridin-2-yl)-3H-imidazo[4,5-b]pyridin-2-yl)-1H-pyrazolo[3,4-b]pyridin-5-yl)pyridin-3-yl)methyl)methanamine] | ≤ 9
384 | CN(C)c1cncc(-c2cnc3[nH]nc(-c4nc5c(N6CCCCC6)ccnc5[nH]4)c3c2)c1 [Compound 139, N,N-Dimethyl-5-(3-(7-(piperidin-1-yl)-3H-imidazo[4,5-b]pyridin-2-yl)-1H-pyrazolo[3,4-b]pyridin-5-yl)pyridin-3-amine] | ≥ 9990
2800 | CN(C)Cc1cncc(-c2cnc3[nH]nc(-c4nc5c(N6CCCCC6)ccnc5[nH]4)c3c2)c1 [Compound 145, N,N-Dimethyl-1-(5-(3-(7-(piperidin-1-yl)-3H-imidazo[4,5-b]pyridin-2-yl)-1H-pyrazolo[3,4-b]pyridin-5-yl)pyridin-3-yl)methanamine] | 1440
247 | O=C(Nc1cncc(-c2cnc3[nH]nc(-c4nc5c(N6CCCCC6)ccnc5[nH]4)c3c2)c1)C1CC1 [Compound 151, N-(5-(3-(7-(Piperidin-1-yl)-3H-imidazo[4,5-b]pyridin-2-yl)-1H-pyrazolo[3,4-b]pyridin-5-yl)pyridin-3-yl)cyclopropanecarboxamide] | 414
4210 | FC1(F)CCN(Cc2cncc(-c3cnc4[nH]nc(-c5nc6c(N7CCCCC7)ccnc6[nH]5)c4c3)c2)C1 [Compound 157, 5-(5-((3,3-Difluoropyrrolidin-1-yl)methyl)pyridin-3-yl)-3-(7-(piperidin-1-yl)-3H-imidazo[4,5-b]pyridin-2-yl)-1H-pyrazolo[3,4-b]pyridine] | ≤ 9
> 10000 | Cc1cn(-c2ccnc3[nH]c(-c4n[nH]c5ncc(-c6cncc(NC(=O)C(C)(C)C)c6)cc45)nc23)cn1 [Compound 165, N-(5-(3-(7-(4-Methyl-1H-imidazol-1-yl)-3H-imidazo[4,5-b]pyridin-2-yl)-1H-pyrazolo[3,4-b]pyridin-5-yl)pyridin-3-yl)pivalamide] | ≥ 9990
276 | Cc1cn(-c2ccnc3[nH]c(-c4n[nH]c5ncc(-c6cncc(CN7CCCC7)c6)cc45)nc23)cn1 [Compound 171, 3-(7-(4-Methyl-1H-imidazol-1-yl)-3H-imidazo[4,5-b]pyridin-2-yl)-5-(5-(pyrrolidin-1-ylmethyl)pyridin-3-yl)-1H-pyrazolo[3,4-b]pyridine] | ≤ 9
> 10000 | CN1CCN(c2ccnc3[nH]c(-c4n[nH]c5ncc(-c6cncc(N)c6)cc45)nc23)CC1 [Compound 186, 5-(3-(7-(4-Methylpiperazin-1-yl)-3H-imidazo[4,5-b]pyridin-2-yl)-1H-pyrazolo[3,4-b]pyridin-5-yl)pyridin-3-amine] | ≥ 9990
